Assay results: US10702506B2, “Small molecule inhibitors of pendrin ion exchange and pharmaceutical compositions” (THE REGENTS OF THE UNIVERSITY OF CALIFORNIA, priority 2016, dated 2020)
Where two headings read alike, the source gives them in different places.

Biological target: T1, pendrin (Homo sapiens, UniProt O43511)
T1 sequence (O43511 1-780): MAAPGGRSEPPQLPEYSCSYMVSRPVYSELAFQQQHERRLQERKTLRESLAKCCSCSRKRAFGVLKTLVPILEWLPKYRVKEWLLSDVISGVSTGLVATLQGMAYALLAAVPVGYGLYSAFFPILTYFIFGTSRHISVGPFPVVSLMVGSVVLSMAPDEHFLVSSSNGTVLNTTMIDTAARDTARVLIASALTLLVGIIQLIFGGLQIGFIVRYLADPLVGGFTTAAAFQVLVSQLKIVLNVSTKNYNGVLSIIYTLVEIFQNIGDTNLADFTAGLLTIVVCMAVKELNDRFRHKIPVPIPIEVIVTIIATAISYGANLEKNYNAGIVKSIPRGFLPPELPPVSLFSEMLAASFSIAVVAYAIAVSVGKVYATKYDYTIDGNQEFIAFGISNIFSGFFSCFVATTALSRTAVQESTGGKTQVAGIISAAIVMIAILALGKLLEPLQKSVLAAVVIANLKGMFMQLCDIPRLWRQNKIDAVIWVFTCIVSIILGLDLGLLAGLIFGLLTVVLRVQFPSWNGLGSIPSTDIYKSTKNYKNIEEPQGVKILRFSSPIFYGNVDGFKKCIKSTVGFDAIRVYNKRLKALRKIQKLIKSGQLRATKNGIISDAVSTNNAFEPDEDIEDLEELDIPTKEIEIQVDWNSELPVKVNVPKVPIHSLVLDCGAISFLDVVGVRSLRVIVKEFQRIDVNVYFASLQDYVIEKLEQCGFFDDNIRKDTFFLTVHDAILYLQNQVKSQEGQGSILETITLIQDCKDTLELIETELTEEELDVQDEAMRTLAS
Experiment: YFP (EYFP-HIF) fluorescence quenching assay of pendrin-mediated Cl− exchange (SCN−, I−, NO3−) in FRT cells; high-throughput screen
Type: cell-based
Design: expressed in transfected cells
Details: for inhibition at 25 µM: FRT, read-out: Inh. (%), percentage inhibition of human pendrin
Protocol: Fischer rat thyroid (FRT) cells were cultured in Kaign's modified Ham's F12 medium supplemented with 10% FBS, 2 mM L-glutamine, 100 U/ml penicillin, […], […] myo-inositol and […] ascorbic acid. For high-throughput screening, FRT cells were stably transfected with EYFP-H148Q/I152L/F46L (EYFP-HIF; in pcDNA3.1/Hygro (+)), isolated using 0.25 mg/ml hygromycin B, and then transfected with pcDNA3.1 (+) encoding human pendrin with clonal cell lines selected using 0.5 mg/ml G418.
High-throughput screening was performed using a semi-automated screening platform (Beckman, Fullerton, Calif.) configured as described. FRT cells expressing human pendrin and EYFP-HIF were plated in 96-well black-walled, clear-bottom tissue culture plates (Corning, Corning, N.Y.) at a density of 20,000 cells/well, and cultured to confluence over 48 h. For screening, plates were washed twice with PBS (in mM: 137 NaCl, 2.7 KCl, 1.1 KH2PO4, 8.1 Na2HPO4, 0.9 CaCl2), 0.5 MgCl2) prior to addition of 100 μl PBS containing test compounds. Screening was done with ˜36,000 compounds from ChemDiv (San Diego, Calif.), TimTec (Newark, Del.), and Asinex (Winston-Salem, N.C.). After 10 min incubation with test compound, plates were transferred to a Tecan Infinite M1000 plate reader (Tecan, Morrisville, N.C.) for fluorescence assay of pendrin activity. The assay duration was 10 s with initial fluorescence intensity recorded for 2 s prior to addition of 100 μl of NaSCN-substituted PBS (137 mM NaCl replaced with NaSCN). All assay plates contained negative controls (DMSO). In some experiments Cl^− exchange for I^− or NO3^− was measured similarly using NaI and NaNO3-substituted PBS. Control experiments to measure basal ion transport rates were done in FRT cells expressing EYFP-HIF without pendrin.
FRT cells were chosen for screening due to their low intrinsic permeability to anions that are transported by pendrin. As depicted in FIGS. 1A and 2A, pendrin activity was assayed from the kinetics of the halide-sensitive fluorescent protein EYFP-HIF in response to addition of a SCN^−-containing solution to drive pendrin-mediated Cl^−/SCN^−. Pendrin inhibition reduces the rate of EYFP-HIF quenching. PDSinh-A01 land PDSinh-C01 decreased pendrin-mediated Cl^−/SCN^− and Cl^−/I^− exchange in a concentration-dependent manner, as measured by YFP fluorescence quenching. […] Because the only previously-described pendrin inhibitor is the weakly active compound niflumic acid, no positive control was included in the screening plates.

Row | IC50 (Cl−/I− exchange, read-out: IC50 for Cl−/I− exchange) [µM] | IC50 (Cl−/NO3− exchange, read-out: IC50 for Cl−/NO3− exchange) [µM] | time at which ~IC50 (half inhibition) was displayed, inhibition kinetics (Cl−/SCN− exchange, 10 μM added for indicated times) [min] | IC50 (Cl−/SCN− exchange, read-out: IC50 for Cl−/SCN− exchange) [µM] | inhibition at 25 µM [%] | reversibility of inhibition by washout (washout) | Compound
1 | ~8 | ~5 | 5 | ~9 | ~100 | reversible | Cn1nc(COc2cccc(F)c2)c2c1CCN(C(=O)Nc1ccc(Cl)cc1)C2 [PDSinh-A01]
2 | – | – | – | – | 83 | – | Cc1n[nH]c(-c2cc(S(=O)(=O)NC3CCCc4ccccc43)c(C)s2)c1C (stereo not shown) [PDSinh-C01]
